# In PubChem BioAssay AID192 (DTP/NCI, 2004):
# Values joined by “and” are separate entries in the source; they are usually repeats but may differ in a detail not shown here. Equal entries are not always repeated. Inconclusive results and toxic doses are left out.
# Tested on: BDF1 mice, B16 melanoma ip, median survival T/C
# Experiment: NCI In Vivo Anticancer Drug Screen. Data for tumor model B16 Melanoma (intraperitoneal) in B6D2F1 (BDF1) mice
# Conditions: endpoint: median survival time, higher = longer survival
# In short: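 Transplantable tumor model; survival or tumor size measured; reported as T/C, treated over vehicle control.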
# [1] = dose: 25.0 mg/kg/injection, schedule: Q01DX009 (ip), vehicle: saline with Tween-80
# [2] = dose: 25.0 mg/kg/injection, schedule: Q01DX009 (ip), vehicle: Klucel (hydroxypropylcellulose) (HPC)
# [3] = dose: 50.0 mg/kg/injection, schedule: Q01DX009 (ip), vehicle: Klucel (hydroxypropylcellulose) (HPC)
# [4] = dose: 50.0 mg/kg/injection, schedule: Q04DX003 (ip), vehicle: Klucel (hydroxypropylcellulose) (HPC)
# [5] = dose: 100.0 mg/kg/injection, schedule: Q04DX003 (ip), vehicle: Klucel (hydroxypropylcellulose) (HPC)
# [6] = dose: 200.0 mg/kg/injection, schedule: Q04DX003 (ip), vehicle: Klucel (hydroxypropylcellulose) (HPC)
# [7] = dose: 400.0 mg/kg/injection, schedule: Q04DX003 (ip), vehicle: Klucel (hydroxypropylcellulose) (HPC)
# [8] = dose: 100.0 mg/kg/injection, schedule: Q01DX009 (ip), vehicle: Klucel (hydroxypropylcellulose) (HPC)
# [9] = dose: 200.0 mg/kg/injection, schedule: Q01DX009 (ip), vehicle: Klucel (hydroxypropylcellulose) (HPC)
# [10] = dose: 400.0 mg/kg/injection, schedule: Q01DX009 (ip), vehicle: Klucel (hydroxypropylcellulose) (HPC)
compound,measurement,setting,value
COc1cc(C(N)=O)cc(OC)c1O,T/C,"dose: 100.0 mg/kg/injection, schedule: Q01DX009 (ip), vehicle: saline",115 % of control
same,T/C,"dose: 200.0 mg/kg/injection, schedule: Q01DX009 (ip), vehicle: saline",110 % of control
same,T/C,"dose: 400.0 mg/kg/injection, schedule: Q01DX009 (ip), vehicle: saline",118 % of control
O=C(Nc1cc(Cl)ccc1Cl)c1ccc(Cl)cc1Cl,T/C,"dose: 6.25 mg/kg/injection, schedule: Q01DX009 (ip), vehicle: saline with Tween-80",97 % of control
same,T/C,"dose: 6.25 mg/kg/injection, schedule: Q04DX003 (ip), vehicle: saline with Tween-80",92 % of control
same,T/C,"dose: 12.5 mg/kg/injection, schedule: Q01DX009 (ip), vehicle: saline with Tween-80",93 % of control
same,T/C,"dose: 12.5 mg/kg/injection, schedule: Q04DX003 (ip), vehicle: saline with Tween-80",96 % of control
same,T/C,[1],100 % of control
same,T/C,"dose: 25.0 mg/kg/injection, schedule: Q04DX003 (ip), vehicle: saline with Tween-80",88 % of control
ClN=C(c1ccccc1)c1ccccc1,T/C,[2],105 % of control
same,T/C,[3],105 % of control
CCOC(=O)Oc1c(OC)cc(C(=O)O[C@@H]2C[C@@H]3CN4CCc5c([nH]c6cc(OC)ccc56)[C@H]4C[C@@H]3[C@H](C(=O)OC)[C@H]2OC)cc1OC,T/C,"dose: 0.09 mg/kg/injection, schedule: Q01DX009 (ip), vehicle: saline",98 % of control
same,T/C,"dose: 0.19 mg/kg/injection, schedule: Q01DX009 (ip), vehicle: saline",93 % of control
same,T/C,"dose: 0.39 mg/kg/injection, schedule: Q01DX009 (ip), vehicle: saline",124 % of control
same,T/C,"dose: 0.78 mg/kg/injection, schedule: Q01DX009 (ip), vehicle: saline",101 % of control
same,T/C,"dose: 1.56 mg/kg/injection, schedule: Q01DX009 (ip), vehicle: saline",112 % of control
same,T/C,"dose: 6.25 mg/kg/injection, schedule: Q01DX009 (ip), vehicle: Klucel (hydroxypropylcellulose) (HPC)",87 % of control
O=C(COc1cc(Cl)c(Cl)cc1Cl)OCCOc1cc(Cl)c(Cl)cc1Cl,T/C,"dose: 12.0 mg/kg/injection, schedule: Q01DX009 (ip), vehicle: Klucel (hydroxypropylcellulose) (HPC)",98 % of control
same,T/C,"dose: 24.0 mg/kg/injection, schedule: Q01DX009 (ip), vehicle: Klucel (hydroxypropylcellulose) (HPC)",98 % of control
same,T/C,"dose: 48.0 mg/kg/injection, schedule: Q01DX009 (ip), vehicle: Klucel (hydroxypropylcellulose) (HPC)",91 % of control
same,T/C,"dose: 96.0 mg/kg/injection, schedule: Q01DX009 (ip), vehicle: Klucel (hydroxypropylcellulose) (HPC)",93 % of control
CCCC(=O)OCC1OC(n2cnc3c(=S)nc[nH]c32)C(OC(=O)CCC)C1OC(=O)CCC (stereo not given),T/C,[1],105 % of control
same,T/C,"dose: 50.0 mg/kg/injection, schedule: Q01DX009 (ip), vehicle: saline with Tween-80",90 % of control
O=C1C(=C(C(F)(F)F)C(F)(F)F)CCc2ccccc21,T/C,[4],95 % of control
same,T/C,[5],95 % of control
same,T/C,[6],100 % of control
COc1ccccc1N1C(N)=NC(N)=NC1(C)C,T/C,"dose: 25.0 mg/kg/injection, schedule: Q01DX009 (ip), vehicle: saline",102 % of control
same,T/C,"dose: 50.0 mg/kg/injection, schedule: Q01DX009 (ip), vehicle: saline",108 % of control
COc1cc2c(cc1OC)C(C=C(c1ccccc1)c1ccccc1)N(C)CC2 (stereo not given),T/C,"dose: 12.5 mg/kg/injection, schedule: Q04DX003 (ip), vehicle: Klucel (hydroxypropylcellulose) (HPC)",97 % of control
same,T/C,"dose: 25.0 mg/kg/injection, schedule: Q04DX003 (ip), vehicle: Klucel (hydroxypropylcellulose) (HPC)",97 % of control
same,T/C,[4],100 % of control
COc1cccc2c1C(=O)c1c(O)c3c(c(O)c1C2=O)C[C@@](O)(/C(CO)=N/NC(=O)c1ccc(Cl)c(Cl)c1)C[C@@H]3OC1CC(N)C(O)C(C)O1 (stereo not given in full),T/C,"dose: 2.5 mg/kg/injection, schedule: Q01DX001 (ip), vehicle: other",119 % of control
same,T/C,"dose: 10.0 mg/kg/injection, schedule: Q01DX001 (ip), vehicle: water",111 % of control and 252 % of control
same,T/C,"dose: 20.0 mg/kg/injection, schedule: Q01DX001 (ip), vehicle: other",247 % of control
same,T/C,"dose: 20.0 mg/kg/injection, schedule: Q01DX001 (ip), vehicle: water",102 % of control
same,T/C,"dose: 40.0 mg/kg/injection, schedule: Q01DX001 (ip), vehicle: water",250 % of control
same,T/C,"dose: 80.0 mg/kg/injection, schedule: Q01DX001 (ip), vehicle: water",105 % of control
CCCCNC(=O)Nc1ccccc1CC,T/C,[5],110 % of control
same,T/C,[6],103 % of control
same,T/C,[7],96 % of control
CN(C(=O)c1cccnc1)c1ccccc1,T/C,"dose: 100.0 mg/kg/injection, schedule: Q01DX009 (ip), vehicle: saline with Tween-80",109 % of control
same,T/C,"dose: 200.0 mg/kg/injection, schedule: Q01DX009 (ip), vehicle: saline with Tween-80",118 % of control
same,T/C,"dose: 400.0 mg/kg/injection, schedule: Q01DX009 (ip), vehicle: saline with Tween-80",111 % of control
CCC(=O)c1cc([N+](=O)[O-])ccc1NC(C)=O,T/C,[8],101 % of control
same,T/C,[9],107 % of control
same,T/C,[10],109 % of control
COc1ccc(/C=C2\CCC3C(=O)CCCC3(C)C2=O)cc1 (stereo not given),T/C,[5],94 % of control
same,T/C,[6],92 % of control
same,T/C,[7],89 % of control
CCCCC(C)(C(=O)OCC)C(=O)OCC,T/C,"dose: 12.5 mg/kg/injection, schedule: Q01DX009 (ip), vehicle: Klucel (hydroxypropylcellulose) (HPC)",108 % of control
same,T/C,[2],101 % of control
same,T/C,[3],102 % of control
same,T/C,[8],101 % of control
same,T/C,[9],102 % of control
same,T/C,[10],94 % of control
O=C(Cl)c1ccc(OC(Cl)(Cl)Cl)cc1,T/C,[8],100 % of control
same,T/C,[9],93 % of control
same,T/C,[10],86 % of control
[Cl][Pt+2][Cl].[NH-]C1CCCC1.[NH-]C1CCCC1,T/C,"dose: 2.5 mg/kg/injection, schedule: Q01DX009 (ip), vehicle: Klucel (hydroxypropylcellulose) (HPC)",107 % of control
same,T/C,"dose: 5.0 mg/kg/injection, schedule: Q01DX009 (ip), vehicle: Klucel (hydroxypropylcellulose) (HPC)",117 % of control
same,T/C,"dose: 10.0 mg/kg/injection, schedule: Q01DX009 (ip), vehicle: Klucel (hydroxypropylcellulose) (HPC)",112 % of control
same,T/C,"dose: 10.0 mg/kg/injection, schedule: Q01DX009 (ip), vehicle: olive oil, sesame oil, peanut oil",104 % of control
same,T/C,"dose: 10.0 mg/kg/injection, schedule: Q01DX009 (ip), vehicle: saline with Tween-80",109 % of control
same,T/C,"dose: 10.0 mg/kg/injection, schedule: Q01DX009 (ip), vehicle: saline",110 % of control
same,T/C,"dose: 20.0 mg/kg/injection, schedule: Q01DX009 (ip), vehicle: saline with Tween-80",117 % of control
same,T/C,"dose: 20.0 mg/kg/injection, schedule: Q01DX009 (ip), vehicle: saline",124 % of control
same,T/C,"dose: 40.0 mg/kg/injection, schedule: Q01DX009 (ip), vehicle: saline with Tween-80",117 % of control
same,T/C,"dose: 40.0 mg/kg/injection, schedule: Q04DX003 (ip), vehicle: Klucel (hydroxypropylcellulose) (HPC)",108 % of control
same,T/C,"dose: 40.0 mg/kg/injection, schedule: Q04DX003 (ip), vehicle: saline",122 % of control
same,T/C,"dose: 80.0 mg/kg/injection, schedule: Q01DX001 (ip), vehicle: Klucel (hydroxypropylcellulose) (HPC)",105 % of control
same,T/C,"dose: 80.0 mg/kg/injection, schedule: Q01DX001 (ip), vehicle: saline",117 % of control
same,T/C,"dose: 80.0 mg/kg/injection, schedule: Q01DX009 (ip), vehicle: Klucel (hydroxypropylcellulose) (HPC)",115 % of control
same,T/C,"dose: 80.0 mg/kg/injection, schedule: Q01DX009 (ip), vehicle: saline with Tween-80",109 % of control
same,T/C,"dose: 80.0 mg/kg/injection, schedule: Q04DX003 (ip), vehicle: Klucel (hydroxypropylcellulose) (HPC)",105 % of control
same,T/C,"dose: 160.0 mg/kg/injection, schedule: Q01DX001 (ip), vehicle: Klucel (hydroxypropylcellulose) (HPC)",117 % of control
same,T/C,"dose: 160.0 mg/kg/injection, schedule: Q01DX009 (ip), vehicle: saline",94 % of control
same,T/C,"dose: 160.0 mg/kg/injection, schedule: Q04DX003 (ip), vehicle: Klucel (hydroxypropylcellulose) (HPC)",105 % of control
same,T/C,"dose: 320.0 mg/kg/injection, schedule: Q01DX001 (ip), vehicle: Klucel (hydroxypropylcellulose) (HPC)",123 % of control
same,T/C,"dose: 320.0 mg/kg/injection, schedule: Q04DX003 (ip), vehicle: Klucel (hydroxypropylcellulose) (HPC)",114 % of control
same,T/C,"dose: 640.0 mg/kg/injection, schedule: Q04DX003 (ip), vehicle: saline",105 % of control
